According to US10736908B2, “Antiviral aryl-amide phosphodiamide compounds” (Merck Sharp & Dohme Corp., priority 2016, dated 2020):
Like-named read-outs stand apart in the source and are kept apart here.

System: HIV-1 (H9/IIIB strain)
Assay: Multiple round HIV-1 infection assay (Viking assay) in MT4-GFP cells
Format: cell-based
Details: HIV-1 replication in MT4-GFP cells
Description: Assessing Antiviral Potency in a Multiple Round HIV-1 Infection Assay (Viking Assay)
The antiviral activity of the tenofovir prodrugs of the Examples herein was assessed in an assay that measures the rate of replication of HIV in cell culture, termed the Viking assay (VIral KINetics in Green cells) and performed as follows. HIV-1 replication was monitored using MT4-gag-GFP clone D3 (hereafter designated MT4-GFP), which are MT-4 cells modified to harbor a GFP reporter gene, the expression of which is dependent on the HIV-1 expressed proteins tat and rev. Productive infection of an MT4-GFP cell with HIV-1 results in GFP expression approximately 24 h post-infection. MT4-GFP cells were maintained at 37° C./5% CO2/90% relative humidity in RPMI 1640 supplemented with 10% fetal bovine serum, 100 U/ml penicillin/streptomycin, and 400 μg/ml G418 to maintain the reporter gene. For infections, MT4-GFP cells were placed in the same medium lacking G418 and infected overnight with HIV-1 (H9/IIIB strain) virus at an approximate multiplicity of infection of 0.01 in the same incubation conditions. […] Compound plates were prepared by dispensing compounds dissolved in DMSO into wells of 384 well poly-D-lysine-coated plates (0.2 μl/well) using an ECHO acoustic dispenser. Each compound was tested in a 10-point serial 3-fold dilution (typical final concentrations: 8.4 μM-0.42 nM). Controls included no inhibitor (DMSO only) and a combination of three antiviral agents (efavirenz, indinavir, an in-house integrase strand transfer inhibitor at final concentrations of 4 μM each). Cells were added (50 μL/well) to compound plates and the infected cells were maintained at 37° C./5% CO2/90% relative humidity.
Infected cells were quantified at two time points, ˜48 h and ˜72 h post-infection, by counting the number of green cells in each well using an Acumen eX3 scanner. The increase in the number of green cells over ˜24 h period gives the reproductive ratio, R0, which is typically 5-15 and has been shown experimentally to be in logarithmic phase (data not shown). Inhibition of R0 is calculated for each well, and IC50s determined by non-linear 4-parameter curve fitting.

[1] = Human immunodeficiency virus 1, IIIB, 50% NHS (normal human serum), read-out: Viking, IC50 (50% NHS)
[2] = Human immunodeficiency virus 1, IIIB, head prints 100% NHS (normal human serum), read-out: Viking, IC50 (100% NHS)
[3] = 50% NHS (normal human serum), read-out: Viking, IC50 (50% NHS)
[4] = head prints 100% NHS (normal human serum), read-out: Viking, IC50 (100% NHS)

Compound	IC50 [1] [nM]	IC50 [2] [nM]	IC50 [3] [nM]	IC50 [4] [nM]
CC(C)OC(=O)C(C)(C)NP(=O)(CO[C@H](C)Cn1cnc2c(N)ncnc21)NC(=O)c1ccc(Cl)cc1 (mixture of isomers) [Example 1A, isopropyl 2-(((R)—((((R)-1-(6-amino-9H-purin-9-yl)propan-2-yl)oxy)methyl)(4-chlorobenzamido)phosphoryl)amino)-2-methylpropanoate and isopropyl 2-(((S)—((((R)-1-(6-amino-9H-purin-9-yl)propan-2-yl)oxy)methyl)(4-chlorobenzamido)phosphoryl)amino)-2-methylpropanoate]	286	82.4	–	–
CCCOC(=O)C(C)(C)NP(=O)(CO[C@H](C)Cn1cnc2c(N)ncnc21)NC(=O)c1ccc(OC)cc1 (single isomer, unassigned) [Example 2A]	93.2	32.4	–	–
CCCOC(=O)C(C)(C)NP(=O)(CO[C@H](C)Cn1cnc2c(N)ncnc21)NC(=O)c1ccc(Cl)cc1 (single isomer, unassigned) [Example 4A]	–	–	57.9	12
CC(C)COC(=O)C(C)(C)NP(=O)(CO[C@H](C)Cn1cnc2c(N)ncnc21)NC(=O)c1ccc(Cl)cc1 (single isomer, unassigned) [Example 5A]	–	–	79.8	12.3
CC(C)COC(=O)C(C)(C)NP(=O)(CO[C@H](C)Cn1cnc2c(N)ncnc21)NC(=O)c1ccc(Cl)cc1 (single isomer, unassigned) [Example 5B]	–	–	24.4	1.9
C[C@H](Cn1cnc2c(N)ncnc21)OCP(=O)(NC(=O)c1ccc(Cl)cc1)NC(C)(C)C(=O)OC1CCC1 (single isomer, unassigned) [Example 6A]	–	–	36.9	11.1
C[C@H](Cn1cnc2c(N)ncnc21)OCP(=O)(NC(=O)c1ccc(Cl)cc1)NC(C)(C)C(=O)OC1CCCC1 (single isomer, unassigned) [Example 7A]	–	–	31.7	8.4
C[C@H](Cn1cnc2c(N)ncnc21)OCP(=O)(NC(=O)c1ccc(Cl)cc1)NC(C)(C)C(=O)OC1CCCC1 (single isomer, unassigned) [Example 7B]	–	–	13.5	1.92
CCOCCOC(=O)C(C)(C)NP(=O)(CO[C@H](C)Cn1cnc2c(N)ncnc21)NC(=O)c1ccc(Cl)cc1 (single isomer, unassigned) [Example 8A]	–	63.9	133	–
CCOCCOC(=O)C(C)(C)NP(=O)(CO[C@H](C)Cn1cnc2c(N)ncnc21)NC(=O)c1ccc(Cl)cc1 (single isomer, unassigned) [Example 8B]	–	–	62.2	41.1
C[C@H](Cn1cnc2c(N)ncnc21)OCP(=O)(NC(=O)c1ccc(Cl)cc1)NC(C)(C)C(=O)OC1CCOCC1 (single isomer, unassigned) [Example 9A]	–	–	1440	404
CC(C)OC(=O)C(C)(C)NP(=O)(CO[C@H](C)Cn1cnc2c(N)ncnc21)NC(=O)c1ccc(F)cc1 (single isomer, unassigned) [Example 10A]	–	–	264	129
CCCCCOC(=O)C(C)(C)NP(=O)(CO[C@H](C)Cn1cnc2c(N)ncnc21)NC(=O)c1ccc(F)cc1 (single isomer, unassigned) [Example 11B]	–	–	30.8	5.7
CCOCCOC(=O)C(C)(C)NP(=O)(CO[C@H](C)Cn1cnc2c(N)ncnc21)NC(=O)c1ccccc1Cl (single isomer, unassigned) [Example 12A]	90.6	30.9	–	–
CCOCCOC(=O)C(C)(C)NP(=O)(CO[C@H](C)Cn1cnc2c(N)ncnc21)NC(=O)c1ccccc1Cl (single isomer, unassigned) [Example 12B]	–	–	83.4	26.7
CC(C)OC(=O)C(C)(C)NP(=O)(CO[C@H](C)Cn1cnc2c(N)ncnc21)NC(=O)c1ccncn1 (single isomer, unassigned) [Example 13A]	–	–	2130	854

Compound	IC50 [1] [nM]	IC50 [2] [nM]	IC50 [3] [nM]	IC50 [4] [nM]
CC(C)OC(=O)C(C)(C)NP(=O)(CO[C@H](C)Cn1cnc2c(N)ncnc21)NC(=O)c1ccncn1 (single isomer, unassigned) [Example 13B]	–	–	480	164
CC(C)OC(=O)C(C)(C)NP(=O)(CO[C@H](C)Cn1cnc2c(N)ncnc21)NC(=O)c1cnccn1 (single isomer, unassigned) [Example 14A]	–	–	1570	284
CC(C)OC(=O)C(C)(C)NP(=O)(CO[C@H](C)Cn1cnc2c(N)ncnc21)NC(=O)c1cnccn1 (single isomer, unassigned) [Example 14B]	–	–	314	112
CCCCCOC(=O)C(C)(C)NP(=O)(CO[C@H](C)Cn1cnc2c(N)ncnc21)NC(=O)c1cccs1 (single isomer, unassigned) [Example 15B]	–	–	29.8	8.1
CCCCCOC(=O)C(C)(C)NP(=O)(CO[C@H](C)Cn1cnc2c(N)ncnc21)NC(=O)c1ccccc1OC (single isomer, unassigned) [Example 16A]	153	13.3	–	–
CCCCCOC(=O)C(C)(C)NP(=O)(CO[C@H](C)Cn1cnc2c(N)ncnc21)NC(=O)c1ccccc1OC (single isomer, unassigned) [Example 16B]	–	–	139	15.5
COc1ccc(C(=O)NP(=O)(CO[C@H](C)Cn2cnc3c(N)ncnc32)NC(C)(C)C(=O)OC(C)C)cc1 (single isomer, unassigned) [Example 17A]	–	–	54.3	18.3
COc1ccc(C(=O)NP(=O)(CO[C@H](C)Cn2cnc3c(N)ncnc32)NC(C)(C)C(=O)OC(C)C)cc1 (single isomer, unassigned) [Example 17B]	–	–	390	157
CCCCCOC(=O)C(C)(C)NP(=O)(CO[C@H](C)Cn1cnc2c(N)ncnc21)NC(=O)c1ccc(C)cc1 (single isomer, unassigned) [Example 18A]	–	–	35.4	9
CCCOC(=O)C(C)(C)NP(=O)(CO[C@H](C)Cn1cnc2c(N)ncnc21)NC(=O)c1ccccc1Cl (single isomer, unassigned) [Example 21B]	229	33.6	–	–
CCOC(=O)C(C)(C)NP(=O)(CO[C@H](C)Cn1cnc2c(N)ncnc21)NC(=O)c1ccc(C(C)(C)C)cc1 (single isomer, unassigned) [Example 22A]	–	–	48.1	15.1
CCOC(=O)C(C)(C)NP(=O)(CO[C@H](C)Cn1cnc2c(N)ncnc21)NC(=O)c1ccc(C(C)(C)C)cc1 (single isomer, unassigned) [Example 22B]	–	–	15.7	5.8
CCCOC(=O)C(C)(C)NP(=O)(CO[C@H](C)Cn1cnc2c(N)ncnc21)NC(=O)c1ccc(OC)cc1 (stereo partly drawn) [Example 2B, propyl 2-(((R)—((((R)-1-(6-amino-9H-purin-9-yl)propan-2-yl)oxy)methyl)(4-methoxy-benzamido)phosphoryl)amino)-2-methylpropanoate and propyl 2-(((S)—((((R)-1-(6-amino-9H-purin-9-yl)propan-2-yl)oxy)methyl(4-methoxybenzamido)phosphoryl)amino)-2-methylpropanoate]	69.8	27.5	–	–
CCCOC(=O)C(C)(C)NP(=O)(CO[C@H](C)Cn1cnc2c(N)ncnc21)NC(=S)c1ccc(Cl)cc1 (stereo partly drawn) [Example 19, propyl 2-((((((R)-1-(6-amino-9H-purin-9-yl)propan-2-yl)oxy)methyl)(4-chlorophenylthioamido)phosphoryl)amino)-2-methylpropanoate]	347	32.1	–	–
CC(C)OC(=O)C(C)(C)NP(=O)(CO[C@H](C)Cn1cnc2c(N)ncnc21)NC(=S)c1ccc(Cl)cc1 (stereo partly drawn) [Example 20, isopropyl 2-((((((R)-1-(6-amino-9H-purin-9-yl)propan-2-yl)oxy)methyl)(4-chlorophenylthioamido)phosphoryl)amino)-2-methylpropanoate]	494	118	–	–
